# Assay results: PMC9304322, “Targeting retinoic acid receptor alpha-corepressor interaction activates chaperone-mediated autophagy and protects against retinal degeneration” (Nature Communications, 2022)
# “And” between values parts separate entries of the source, which are not always exact repeats. Equal values may be shown once. Read-outs that look alike come from different tables or passages of the source.
# Legend:
# [1] = Pharmacokinetic analysis, plasma and brain;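 as to Fig. 3a level, MEAN: plasma concentration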;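 as to Fig. 3a level, single animals 1-3: plasma concentration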;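 as to Fig. 3b level, MEAN: brain concentration in ng/g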;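 as to Fig. 3b level, single animals 1-3: brain concentration in ng/g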; assay type: in vivo, ICR (CD-1) male mice; set-up: Fig. 3a level, single animals 1-3 / Fig. 3a level, MEAN / Fig. 3b level, single animals 1-3 / Fig. 3b level, MEAN: unit not given here; conditions: for Kp at 0.083 h / Kp at 0.25 h / Kp at 0.5 h / Kp at 1 h / Kp at 2 h / Kp at 4 h / Kp at 8 h / half-life: male, ICR (CD-1), mouse; for half-life: mice
# Experimental: ICR (CD-1) male mice were fasted at least three hours and water was available ad libitum before the study. Animals were housed in a controlled environment, target conditions: temperature 18 to 29 °C, relative humidity 30 to 70%. Temperature and relative humidity was monitored daily. An electronic time-controlled lighting system was used to provide a 12 h light/12 h dark cycle. 3 mice for each indicated time point were administered 30 mg/Kg CA39 or CA77 by oral gavage or 1 mg/Kg CA39 or CA77 by intravenous injection using 30% PEG-400, 65% D5W (5% dextrose in water), 5% Tween-80 vehicle. Mice were sacrificed, and brain samples were harvested at […], 0.25 h, 0.5 h, 1 h, 2 h, 4 h, 8 h, 24 h, and analyzed for CA39 or CA77 levels using LC-MS/MS. Pharmacokinetics parameters were calculated using Phoenix WinNonlin 6.3. Experiments performed at SIMM-SERVIER joint Biopharmacy Laboratory.
# [2] = In vitro solubility by nephelometry; assay type: physicochemical; conditions: in words
# Experimental: In vitro solubility in the following conditions A) HBSS/HEPES 10 mM/BSA 0.1% pH 6 B) HBSS/HEPES 10 mM/BSA 0.1% pH 7.4 C) TRIS/BSA 0.1% PBS (pH 7.4 and at indicated doses were measured by Nephelometry using the NEPHELOstar Galaxy apparatus (BMG Lab Technologies). In vitro stability in human, mouse and rat liver microsomes and permeability using a bidirectional permeability assay with CaCo-2 cells (pH 6.5/7.4) assays were performed with standard methodology and analyzed by LC-MS/MS. at SIMM-SERVIER joint Biopharmacy Laboratory. ADME properties for CA39 and CA77 were predicted by QikProp (Schrödinger, LLC, Releases 2016-2020) software.
smiles,measurement,setting,value
CC(=O)Nc1ccc(C2=Nc3ccc(Cl)cc3OC2)cc1 [CA77],"Fig. 3a level, MEAN","[1]; IV, Time 0.25 h",30.2
same,"Fig. 3a level, single animals 1-3","[1]; IV, Time 0.25 h",27.2 and 43.9 and 19.5
same,"Fig. 3b level, MEAN","[1]; IV, Time 0.25 h",3653.67
same,"Fig. 3b level, single animals 1-3","[1]; IV, Time 0.25 h",3391 and 5173 and 2397
same,"Fig. 3a level, MEAN","[1]; IV, Time 0.5 h",17.9
same,"Fig. 3a level, single animals 1-3","[1]; IV, Time 0.5 h",17.2 and 14.6 and 21.9
same,"Fig. 3b level, MEAN","[1]; IV, Time 0.5 h",2647.67
same,"Fig. 3b level, single animals 1-3","[1]; IV, Time 0.5 h",2198 and 2795 and 2950
same,"Fig. 3a level, MEAN","[1]; IV, Time 1 h",17.4333
same,"Fig. 3a level, single animals 1-3","[1]; IV, Time 1 h",15.5 and 21.5 and 15.3
same,"Fig. 3b level, MEAN","[1]; IV, Time 1 h",2521.11
same,"Fig. 3b level, single animals 1-3","[1]; IV, Time 1 h",2758.39 and 2650.88 and 2154.07
same,"Fig. 3a level, MEAN","[1]; IV, Time 2 h",4.363
same,"Fig. 3a level, single animals 1-3","[1]; IV, Time 2 h",7.54 and 1.71 and 3.84
same,"Fig. 3b level, MEAN","[1]; IV, Time 2 h",658.667
same,"Fig. 3b level, single animals 1-3","[1]; IV, Time 2 h",773 and 411 and 792
same,"Fig. 3a level, MEAN","[1]; IV, Time 4 h",0.3767
same,"Fig. 3a level, single animals 1-3","[1]; IV, Time 4 h",BLQ and 0.597 and 0.533
same,"Fig. 3b level, MEAN","[1]; IV, Time 4 h",104
same,"Fig. 3b level, single animals 1-3","[1]; IV, Time 4 h",76 and 112 and 124
same,"Fig. 3a level, MEAN","[1]; IV, Time 8 h",0
same,"Fig. 3a level, single animals 1-3","[1]; IV, Time 8 h",BLQ
same,"Fig. 3b level, MEAN","[1]; IV, Time 8 h",25.5467
same,"Fig. 3b level, single animals 1-3","[1]; IV, Time 8 h",7.74 and 27.5 and 41.4
same,"Fig. 3a level, MEAN","[1]; IV, Time 24 h",0
same,"Fig. 3a level, single animals 1-3","[1]; IV, Time 24 h",BLQ
same,"Fig. 3b level, MEAN","[1]; IV, Time 24 h",3
same,"Fig. 3b level, single animals 1-3","[1]; IV, Time 24 h",2.68 and 4.25 and 2.07
same,"B/P, Brian/Plasma","[1]; P.O., Time 0.25 h, individual animals",60.8033 and 75.265
same,"B/P, Brian/Plasma","[1]; P.O., Time 0.5 h, individual animals",154.065 and 93.9339
same,"B/P, Brian/Plasma","[1]; P.O., Time 1 h, individual animals",105.807 and 124.313
same,"B/P, Brian/Plasma","[1]; P.O., Time 2 h, individual animals",113.451 and 103.8
same,"B/P, Brian/Plasma","[1]; P.O., Time 4 h, individual animals",108.623 and 135.516
same,"B/P, Brian/Plasma","[1]; P.O., Time 8 h, individual animals",133.365 and 145.604
same,"Fig. 3b level, MEAN","[1]; PO, Time 0.25 h",9743
same,"Fig. 3b level, single animals 1-3","[1]; PO, Time 0.25 h",7893 and 7279 and 14057
same,"Fig. 3b level, MEAN","[1]; PO, Time 0.5 h",16210.7
same,"Fig. 3b level, single animals 1-3","[1]; PO, Time 0.5 h",13095 and 20145 and 15392
same,"Fig. 3b level, MEAN","[1]; PO, Time 1 h",30964
same,"Fig. 3b level, single animals 1-3","[1]; PO, Time 1 h",31243 and 27952 and 33697
same,"Fig. 3a level, MEAN","[1]; PO, Time 2 h",278
same,"Fig. 3a level, single animals 1-3","[1]; PO, Time 2 h",318 and 259 and 257
same,"Fig. 3b level, MEAN","[1]; PO, Time 2 h",29203.3
same,"Fig. 3b level, single animals 1-3","[1]; PO, Time 2 h",31592 and 29359 and 26659
same,"Fig. 3a level, MEAN","[1]; PO, Time 4 h",203.667
same,"Fig. 3a level, single animals 1-3","[1]; PO, Time 4 h",163 and 258 and 190
same,"Fig. 3b level, MEAN","[1]; PO, Time 4 h",24280.3
same,"Fig. 3b level, single animals 1-3","[1]; PO, Time 4 h",19042 and 28003 and 25796
same,"Fig. 3a level, MEAN","[1]; PO, Time 8 h",44.4333
same,"Fig. 3a level, single animals 1-3","[1]; PO, Time 8 h",55.2 and 45.3 and 32.8
same,"Fig. 3b level, MEAN","[1]; PO, Time 8 h",5756
same,"Fig. 3b level, single animals 1-3","[1]; PO, Time 8 h",6451 and 6039 and 4778
same,"Fig. 3a level, MEAN","[1]; PO, Time 24 h",0
same,"Fig. 3a level, single animals 1-3","[1]; PO, Time 24 h",0
same,"Fig. 3b level, MEAN","[1]; PO, Time 24 h",10.0733
same,"Fig. 3b level, single animals 1-3","[1]; PO, Time 24 h",18.9 and 6.07 and 5.25
same,"B/P, Brian/Plasma","[1]; i.v., Time 0.083 h, individual animals",71.1336 and 48.9012
same,"B/P, Brian/Plasma","[1]; i.v., Time 0.25 h, individual animals",117.877 and 123.138
same,"B/P, Brian/Plasma","[1]; i.v., Time 0.5 h, individual animals",191.891 and 134.551
same,"B/P, Brian/Plasma","[1]; i.v., Time 1 h, individual animals",123.104 and 140.908
same,"B/P, Brian/Plasma","[1]; i.v., Time 2 h, individual animals",102.433 and 239.982 and 206.167
same,"B/P, Brian/Plasma","[1]; i.v., Time 4 h, individual animals",232.498
same,Kp at 0.083 h,"[1]; brain, iv, 1 mg/Kg, i.v., Time 0.083 h, individual animals, read-out: B/P, Brian/Plasma",71.3
same,Kp at 0.083 h,"[1]; brain, iv, 1 mg/Kg, i.v., Time 0.083 h, mean, read-out: B/P, Brian/Plasma, Mean",71.2
same,Kp at 0.25 h,"[1]; brain, iv, 1 mg/Kg, i.v., Time 0.25 h, individual animals, read-out: B/P, Brian/Plasma",125
same,Kp at 0.25 h,"[1]; brain, iv, 1 mg/Kg, i.v., Time 0.25 h, mean, read-out: B/P, Brian/Plasma, Mean",122
same,Kp at 0.5 h,"[1]; brain, iv, 1 mg/Kg, i.v., Time 0.5 h, individual animals, read-out: B/P, Brian/Plasma",128
same,Kp at 0.5 h,"[1]; brain, iv, 1 mg/Kg, i.v., Time 0.5 h, mean, read-out: B/P, Brian/Plasma, Mean",151
same,Kp at 1 h,"[1]; brain, iv, 1 mg/Kg, i.v., Time 1 h, individual animals, read-out: B/P, Brian/Plasma",178
same,Kp at 1 h,"[1]; brain, iv, 1 mg/Kg, i.v., Time 1 h, mean, read-out: B/P, Brian/Plasma, Mean",159
same,Kp at 2 h,"[1]; brain, iv, 1 mg/Kg, i.v., Time 2 h, mean, read-out: B/P, Brian/Plasma, Mean",183
same,Kp at 4 h,"[1]; brain, iv, 1 mg/Kg, i.v., Time 4 h, individual animals, read-out: B/P, Brian/Plasma",188
same,Kp at 4 h,"[1]; brain, iv, 1 mg/Kg, i.v., Time 4 h, mean, read-out: B/P, Brian/Plasma, Mean",210
same,Kp at 0.25 h,"[1]; brain, po, 30 mg/Kg, P.O., Time 0.25 h, individual animals, read-out: B/P, Brian/Plasma",64.5
same,Kp at 0.25 h,"[1]; brain, po, 30 mg/Kg, P.O., Time 0.25 h, mean, read-out: B/P, Brian/Plasma, Mean",66.9
same,Kp at 0.5 h,"[1]; brain, po, 30 mg/Kg, P.O., Time 0.5 h, individual animals, read-out: B/P, Brian/Plasma",122
same,Kp at 0.5 h,"[1]; brain, po, 30 mg/Kg, P.O., Time 0.5 h, mean, read-out: B/P, Brian/Plasma, Mean",123
same,Kp at 1 h,"[1]; brain, po, 30 mg/Kg, P.O., Time 1 h, individual animals, read-out: B/P, Brian/Plasma",125
same,Kp at 1 h,"[1]; brain, po, 30 mg/Kg, P.O., Time 1 h, mean, read-out: B/P, Brian/Plasma, Mean",118
same,Kp at 2 h,"[1]; brain, po, 30 mg/Kg, P.O., Time 2 h, individual animals, read-out: B/P, Brian/Plasma",99.4
same,Kp at 2 h,"[1]; brain, po, 30 mg/Kg, P.O., Time 2 h, mean, read-out: B/P, Brian/Plasma, Mean",106
same,Kp at 4 h,"[1]; brain, po, 30 mg/Kg, P.O., Time 4 h, individual animals, read-out: B/P, Brian/Plasma",117
same,Kp at 4 h,"[1]; brain, po, 30 mg/Kg, P.O., Time 4 h, mean, read-out: B/P, Brian/Plasma, Mean",120
same,Kp at 8 h,"[1]; brain, po, 30 mg/Kg, P.O., Time 8 h, individual animals, read-out: B/P, Brian/Plasma",117
same,Kp at 8 h,"[1]; brain, po, 30 mg/Kg, P.O., Time 8 h, mean, read-out: B/P, Brian/Plasma, Mean",132
same,half-life,"[1]; brain, IV 1 mg/kg, read-out: Half-life in brain (converted)",1.8 h
same,half-life,"[1]; brain, PO 30 mg/kg, read-out: Half-life in brain (converted)",4.2 h
same,half-life,"[1]; plasma, IV 1 mg/kg, read-out: Half-life in plasma (converted)",0.6 h
same,half-life,"[1]; plasma, PO 30 mg/kg, read-out: Half-life in plasma (converted)",2.2 h
same,solubility,[2],reasonable
